Laboratory results published in publication PMC9697930 (International Journal of Molecular Sciences, 2022).

Columns and labels:
[1] = target: T1, ABCB1 (Homo sapiens, UniProt P08183); settings: 12-days exposure; MCF-10A; cited from earlier work
[2] = target: T2, ABCC1 (Homo sapiens, UniProt P33527); test: Accumulation assay with daunorubicin in MDCKII-ABCC1 cells; format: cell-based; set-up: expressed in transfected cells; host or cells: MDCKII (canine kidney) subline MDCKII-ABCC1, gift of Dr. Alfred Schinkel; settings: read-out: ABCC1 inhibition IC50
Protocol: (§1) The conduction of accumulation assays followed the slightly changed protocol described previously. In the study, MDCKII-par, MDCKII-ABCB1, MDCKII-ABCC1, MDCKII-ABCG2, and primary explants were seeded into 12-well plates in variant densities, 22.0 × 10^4, 15.0 × 10^4, 25.0 × 10^4, 22.0 × 10^4, and 15.0 × 10^4 cells/well, respectively. After 24 h incubation, two washing steps with 1 × PBS were applied. […] The cells were then incubated under standard conditions for 30 min. Next steps included placing the plates on ice, washing the cells with ice-cold 1 × PBS two-times, and detaching the cells with the ice-cold 10 × trypsin without phenol red. Following trypsinization, cells were resuspended in 1 × PBS containing 2% FBS. Subsequently, cell suspensions were transferred into the test tubes and kept on ice. The fluorescence in cells was measured immediately after the collection of their suspensions using flow cytometer Sony SA3800 Spectral Cell Analyzer (Sony Biotechnology, San Jose, CA, USA). SA3800 software (Sony Biotechnology, San Jose, CA, USA) was used to evaluate the data.

[3] = target: T1, ABCB1; test: Accumulation assay with daunorubicin in MDCKII-ABCB1 cells; format: cell-based; set-up: expressed in transfected cells; host or cells: MDCKII (canine kidney) subline MDCKII-ABCB1, gift of Dr. Alfred Schinkel; settings: read-out: ABCB1 inhibition IC50
Protocol: as §1

[4] = test system: MDCKII-par cells; test: Accumulation assay in control parent cells; format: cell-based, Canine
Protocol: as §1

[5] = target: T3, CYP3A5 (Homo sapiens, UniProt P20815); test: Incubation assay with recombinant CYP (Vivid kit); format: biochemical; settings: recombinant enzyme, Vivid substrate
T3 construct: purchased
Protocol: (§2) Possible interactions of examined PARPi with human CYP3A4, CYP2C8, CYP2D6, CYP1A2, CYP2B6, CYP2C9, CYP2C19, and CYP3A5 were evaluated using commercial Vivid CYP450 Screening Kits. […] CYP isoenzymes were mixed with the NADPH-regeneration system, and resulting solutions were added to the wells. After 10 min preincubation, the solution of NADP ^+ and a particular Vivid substrate were added to start the CYP-catalyzed reaction. Fluorescence corresponding to the levels of produced metabolites was detected using the microplate reader Infinite […] (Tecan, Männedorf, Switzerland) in a kinetic mode (1-minute intervals). The data from the 15 min interval were selected to analyze the results.

[6] = target: T4, CYP2B6 (Homo sapiens, UniProt P20813); test: Incubation assay with recombinant CYP (Vivid kit); format: biochemical; settings: recombinant enzyme, Vivid substrate
T4 construct: purchased
Protocol: as §2

[7] = target: T5, CYP2D6 (Homo sapiens, UniProt P10635); test: Incubation assay with recombinant CYP (Vivid kit); format: biochemical; settings: recombinant enzyme, Vivid substrate
T5 construct: purchased
Protocol: as §2

[8] = target: T6, CYP2C9 (Homo sapiens, UniProt P11712); test: Incubation assay with recombinant CYP (Vivid kit); format: biochemical; settings: recombinant enzyme, Vivid substrate
T6 construct: purchased
Protocol: as §2

[9] = target: T7, CYP2C8 (Homo sapiens, UniProt P10632); test: Incubation assay with recombinant CYP (Vivid kit); format: biochemical; settings: recombinant enzyme, Vivid substrate
T7 construct: purchased
Protocol: as §2

[10] = target: T8, CYP2C19 (Homo sapiens, UniProt P33261); test: Incubation assay with recombinant CYP (Vivid kit); format: biochemical; settings: recombinant enzyme, Vivid substrate
T8 construct: purchased
Protocol: as §2

[11] = target: T9, CYP1A2 (Homo sapiens, UniProt P05177); test: Incubation assay with recombinant CYP (Vivid kit); format: biochemical; settings: recombinant enzyme, Vivid substrate
T9 construct: purchased
Protocol: as §2

[12] = MTT proliferation / drug combination assay; format: cell-based, Canine; settings: dog, MDCKII-ABCG2 cells; MDCKII-ABCG2; comparative MTT, 48 h; read-out: antiproliferative IC50
Protocol: (§3) The viability MTT assay was employed in several experimental sets, including induction studies, comparative viability assays, and drug combinations. First, 1.3 × 10^4 (MDCKII sublines), 1.2 × 10^4 (A431 sublines), 1.5 × 10^4 (MCF-7), and 1.0 × 10^4 (primary NSCLC explants) cells were seeded in 96-well plates. After seeding, cells were left to refresh in incubator for 24 h. Secondly, the medium was removed, and the serial dilutions of the drugs or drug combinations were added to the cells. Next to these variants, a medium with 40% DMSO and vehicle-containing media were tested as nonviable and unaffected viability controls, respectively. After an additional 48 h of incubation, the cells were washed with 1 × PBS and then treated with 1 mg/mL MTT solution in Opti-MEM. Subsequently, cells were incubated for 60 min under standard conditions. After MTT treatment, generated formazan crystals were solubilized with DMSO for 10 min. Wavelengths of 570 nm (formazan) and 690 nm (background) were used for absorbance measurements using a microplate reader Infinite 200 Pro NanoQuant (Tecan, Männedorf, Switzerland).
(§4) In vitro cell lines (MDCKII and A431) and primary NSCLC explants were seeded (see densities above) in 96-well plates and incubated for 24 h. […] Combined cells were incubated with the tested compounds for 48 h, and subsequently, MTT assay was performed to assess cell viability as described above. Besides IC50-shift analysis, CompuSyn 3.0.1 software (ComboSyn Inc., Paramus, NJ, USA) was used for the additional analysis of obtained data. This software works with the algorithms of the combination index (CI) method of Chou–Talalay, which is frequently used for the accurate quantification of drug combinations’ outcomes. According to the CI method principle, the combination effects were separated into three categories, including synergistic (CI < 0.9), additive (CI between 0.9–1.1), or antagonistic (CI > 1.1) ones.

[13] = test system: MDCKII-ABCC1; test: MTT proliferation / drug combination assay; format: cell-based, Canine; settings: Canis lupus familiaris, comparative MTT, 48 h, read-out: antiproliferative IC50
Protocol: as §3, §4

[14] = test system: MDCKII-parent; test: MTT proliferation / drug combination assay; format: cell-based, Canine; settings: Canis lupus familiaris; MDCKII-par; comparative MTT, 48 h; read-out: antiproliferative IC50
Protocol: as §3, §4

[15] = in-human mass-balance study; cited from earlier work
[16] = target: T2, ABCC1; settings: 12-days exposure; MCF-10A; cited from earlier work

T1 sequence (P08183 whole entry): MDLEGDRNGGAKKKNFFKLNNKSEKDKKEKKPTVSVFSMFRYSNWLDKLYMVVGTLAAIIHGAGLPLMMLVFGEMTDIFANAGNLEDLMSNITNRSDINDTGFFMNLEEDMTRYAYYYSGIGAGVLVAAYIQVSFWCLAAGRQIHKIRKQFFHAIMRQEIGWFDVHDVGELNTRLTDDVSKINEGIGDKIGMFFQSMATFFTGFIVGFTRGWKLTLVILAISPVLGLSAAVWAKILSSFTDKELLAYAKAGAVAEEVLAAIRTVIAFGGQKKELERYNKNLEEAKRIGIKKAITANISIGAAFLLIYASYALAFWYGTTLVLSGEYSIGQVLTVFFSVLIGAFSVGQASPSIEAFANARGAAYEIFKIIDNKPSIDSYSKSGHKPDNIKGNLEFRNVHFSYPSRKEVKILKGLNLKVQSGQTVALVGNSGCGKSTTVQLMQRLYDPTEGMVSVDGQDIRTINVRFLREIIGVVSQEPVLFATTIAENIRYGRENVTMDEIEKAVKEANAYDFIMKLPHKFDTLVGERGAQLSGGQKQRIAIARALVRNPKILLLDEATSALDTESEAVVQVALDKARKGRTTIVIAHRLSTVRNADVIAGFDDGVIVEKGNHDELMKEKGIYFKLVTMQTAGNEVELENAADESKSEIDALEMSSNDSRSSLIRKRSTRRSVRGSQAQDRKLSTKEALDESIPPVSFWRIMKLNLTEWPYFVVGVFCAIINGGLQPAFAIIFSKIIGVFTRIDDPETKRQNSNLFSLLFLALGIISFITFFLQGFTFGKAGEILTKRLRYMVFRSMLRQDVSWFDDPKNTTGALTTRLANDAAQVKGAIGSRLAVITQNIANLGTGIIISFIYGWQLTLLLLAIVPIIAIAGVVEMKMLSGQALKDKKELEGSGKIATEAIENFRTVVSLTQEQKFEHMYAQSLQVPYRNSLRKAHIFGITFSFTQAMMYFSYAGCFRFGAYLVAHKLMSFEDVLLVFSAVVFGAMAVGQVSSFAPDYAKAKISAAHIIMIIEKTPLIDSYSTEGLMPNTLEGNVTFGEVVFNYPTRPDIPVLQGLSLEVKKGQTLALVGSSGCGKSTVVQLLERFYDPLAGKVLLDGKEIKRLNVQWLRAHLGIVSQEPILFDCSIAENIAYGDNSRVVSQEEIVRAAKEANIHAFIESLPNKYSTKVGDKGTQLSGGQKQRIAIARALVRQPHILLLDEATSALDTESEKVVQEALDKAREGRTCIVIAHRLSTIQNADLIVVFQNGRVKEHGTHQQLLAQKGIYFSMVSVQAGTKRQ
T2 sequence (P33527 whole entry): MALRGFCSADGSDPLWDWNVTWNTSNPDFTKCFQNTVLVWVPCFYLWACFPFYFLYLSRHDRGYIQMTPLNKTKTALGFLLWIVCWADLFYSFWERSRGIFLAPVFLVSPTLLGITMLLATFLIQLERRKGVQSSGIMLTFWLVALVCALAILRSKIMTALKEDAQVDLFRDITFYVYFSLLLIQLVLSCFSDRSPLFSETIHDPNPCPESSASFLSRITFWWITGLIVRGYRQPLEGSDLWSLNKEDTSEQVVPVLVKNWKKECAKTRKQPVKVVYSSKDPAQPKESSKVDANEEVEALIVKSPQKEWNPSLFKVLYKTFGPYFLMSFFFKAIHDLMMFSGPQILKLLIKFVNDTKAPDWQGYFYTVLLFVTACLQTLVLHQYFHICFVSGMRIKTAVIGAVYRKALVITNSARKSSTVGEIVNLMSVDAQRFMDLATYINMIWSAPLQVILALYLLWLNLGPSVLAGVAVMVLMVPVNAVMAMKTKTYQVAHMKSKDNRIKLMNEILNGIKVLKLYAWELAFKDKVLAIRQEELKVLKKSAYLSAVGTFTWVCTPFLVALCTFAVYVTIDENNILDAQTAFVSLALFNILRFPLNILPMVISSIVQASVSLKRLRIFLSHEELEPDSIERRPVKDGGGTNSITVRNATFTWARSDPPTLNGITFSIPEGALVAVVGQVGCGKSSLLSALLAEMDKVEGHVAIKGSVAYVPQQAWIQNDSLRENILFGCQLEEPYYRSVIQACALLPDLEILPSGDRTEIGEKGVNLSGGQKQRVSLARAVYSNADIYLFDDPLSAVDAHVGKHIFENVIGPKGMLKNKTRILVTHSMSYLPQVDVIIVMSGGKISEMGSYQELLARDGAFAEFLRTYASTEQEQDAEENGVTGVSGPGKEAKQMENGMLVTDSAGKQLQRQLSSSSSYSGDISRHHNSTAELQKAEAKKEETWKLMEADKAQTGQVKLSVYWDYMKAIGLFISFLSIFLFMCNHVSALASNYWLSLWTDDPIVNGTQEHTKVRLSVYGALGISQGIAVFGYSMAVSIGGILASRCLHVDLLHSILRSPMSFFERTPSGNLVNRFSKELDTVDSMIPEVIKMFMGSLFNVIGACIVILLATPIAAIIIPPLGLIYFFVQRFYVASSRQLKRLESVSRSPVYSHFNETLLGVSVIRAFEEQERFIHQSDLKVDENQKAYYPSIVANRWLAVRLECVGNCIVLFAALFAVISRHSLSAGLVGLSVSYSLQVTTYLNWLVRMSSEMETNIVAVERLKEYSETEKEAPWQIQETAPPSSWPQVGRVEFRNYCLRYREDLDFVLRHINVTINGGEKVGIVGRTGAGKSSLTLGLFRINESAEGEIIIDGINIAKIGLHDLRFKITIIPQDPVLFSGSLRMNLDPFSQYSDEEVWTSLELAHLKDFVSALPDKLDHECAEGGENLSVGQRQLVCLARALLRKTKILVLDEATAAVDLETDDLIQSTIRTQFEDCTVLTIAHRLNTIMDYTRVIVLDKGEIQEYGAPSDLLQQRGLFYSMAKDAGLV
T4 sequence (P20813 whole entry): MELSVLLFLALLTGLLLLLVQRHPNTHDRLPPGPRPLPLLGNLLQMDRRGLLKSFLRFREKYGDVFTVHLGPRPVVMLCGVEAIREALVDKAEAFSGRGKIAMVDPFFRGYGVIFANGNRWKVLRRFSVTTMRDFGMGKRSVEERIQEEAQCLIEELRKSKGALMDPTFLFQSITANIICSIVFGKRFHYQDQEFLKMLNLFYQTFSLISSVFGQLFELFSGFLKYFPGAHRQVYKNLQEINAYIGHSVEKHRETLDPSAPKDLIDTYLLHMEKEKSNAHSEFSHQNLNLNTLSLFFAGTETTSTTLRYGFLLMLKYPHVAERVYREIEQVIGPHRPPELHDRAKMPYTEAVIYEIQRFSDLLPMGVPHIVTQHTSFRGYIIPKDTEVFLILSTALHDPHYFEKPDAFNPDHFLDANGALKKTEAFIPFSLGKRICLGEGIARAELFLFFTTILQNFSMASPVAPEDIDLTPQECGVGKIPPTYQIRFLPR
T8 sequence (P33261 whole entry): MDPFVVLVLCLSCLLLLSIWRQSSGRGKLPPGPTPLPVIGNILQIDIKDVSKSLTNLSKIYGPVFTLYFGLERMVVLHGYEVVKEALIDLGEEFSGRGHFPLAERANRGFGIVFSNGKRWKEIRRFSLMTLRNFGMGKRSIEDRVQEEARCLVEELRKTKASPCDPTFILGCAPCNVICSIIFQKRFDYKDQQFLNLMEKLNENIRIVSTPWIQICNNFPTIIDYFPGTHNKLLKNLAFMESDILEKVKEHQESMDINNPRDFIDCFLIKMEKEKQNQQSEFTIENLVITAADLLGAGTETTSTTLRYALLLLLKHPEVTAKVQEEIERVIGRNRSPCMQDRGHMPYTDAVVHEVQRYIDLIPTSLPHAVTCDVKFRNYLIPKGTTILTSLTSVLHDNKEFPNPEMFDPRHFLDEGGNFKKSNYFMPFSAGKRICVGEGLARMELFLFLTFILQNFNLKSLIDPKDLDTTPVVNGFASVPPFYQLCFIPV
T7 sequence (P10632 whole entry): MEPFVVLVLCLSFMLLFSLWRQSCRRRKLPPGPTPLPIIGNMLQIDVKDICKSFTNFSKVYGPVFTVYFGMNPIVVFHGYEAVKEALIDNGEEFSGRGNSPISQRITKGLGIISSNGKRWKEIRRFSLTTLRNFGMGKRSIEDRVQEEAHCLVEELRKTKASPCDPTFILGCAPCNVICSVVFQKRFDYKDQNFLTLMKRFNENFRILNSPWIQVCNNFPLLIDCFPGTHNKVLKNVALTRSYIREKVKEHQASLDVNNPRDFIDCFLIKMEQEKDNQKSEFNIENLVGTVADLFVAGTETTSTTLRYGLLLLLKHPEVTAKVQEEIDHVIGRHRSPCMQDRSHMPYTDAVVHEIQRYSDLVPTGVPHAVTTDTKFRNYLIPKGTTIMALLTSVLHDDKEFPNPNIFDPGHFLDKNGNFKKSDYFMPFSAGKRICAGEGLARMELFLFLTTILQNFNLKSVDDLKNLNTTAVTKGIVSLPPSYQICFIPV
T9 sequence (P05177 whole entry): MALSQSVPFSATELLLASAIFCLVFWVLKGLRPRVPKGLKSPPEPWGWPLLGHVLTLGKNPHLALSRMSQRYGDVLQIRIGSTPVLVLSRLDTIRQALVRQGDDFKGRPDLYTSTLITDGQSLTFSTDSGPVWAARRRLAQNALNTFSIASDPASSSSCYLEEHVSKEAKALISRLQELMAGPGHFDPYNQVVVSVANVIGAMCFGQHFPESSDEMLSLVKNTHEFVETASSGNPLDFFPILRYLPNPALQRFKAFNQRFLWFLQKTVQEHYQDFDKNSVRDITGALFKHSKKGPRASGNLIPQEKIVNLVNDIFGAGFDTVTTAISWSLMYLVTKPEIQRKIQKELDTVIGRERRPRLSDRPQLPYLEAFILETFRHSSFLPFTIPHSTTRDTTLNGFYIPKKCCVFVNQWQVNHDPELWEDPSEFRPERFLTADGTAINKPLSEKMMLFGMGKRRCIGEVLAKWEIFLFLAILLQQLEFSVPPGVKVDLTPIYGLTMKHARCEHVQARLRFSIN

Structure (SMILES): Cn1ncnc1[C@H]1c2n[nH]c(=O)c3cc(F)cc(c23)N[C@@H]1c1ccc(F)cc1 [talazoparib, Talazoparib]
- effect on ABCB1 mRNA [1]: upregulate
- effect on ABCB1 protein level [1]: fluctuating (concentration-dependent induction or downregulation)
- IC50 [2]: 5.62 µM
- IC50 [3]: > 50 µM
- effect on accumulations of probe substrate drugs [4]: did not exhibit any significant effects
- IC50 [5]: > 50 µM
- IC50 [6]: > 50 µM
- IC50 [7]: > 50 µM
- IC50 [8]: > 50 µM
- IC50 [9]: > 50 µM
- IC50 [10]: > 50 µM
- IC50 [11]: > 50 µM
- IC50 at 48 h [12]: 64.5 µM
- IC50 [13]: 66 µM
- IC50 [14]: 69.4 µM
- excretion [15]: a major fraction of the dose is excreted renally and biliary in unchanged form
- extent of metabolism [15]: minimally metabolized
- effect on ABCC1 mRNA [16]: upregulate
- effect on ABCC1 protein level [16]: unchanged
